For three compounds, IC50 results are on record in patent US6710048B2, “Pyrazine derivatives as modulators of tyrosine kinases” (Ortho-McNeil Pharmaceutical, Inc., priority 2000, dated 2004).

Some results are limits rather than exact numbers.

Format in all cases: cell-based
The test system of one assay is rat aortic ring. As to the kind of experiment: Rat aortic ring assay (vascular sprouting). The conditions noted are these: 192 h; rat aortic ring in fibrin gel, analyzed on day 8; read-out: Inhibition of Vascular Sprouting (IC50μM). Here is the method:
The rat aortic ring assay is a rapid in vitro assay that measures new capillary growth in an environment that closely approximates the in vivo conditions of the extracellular matrix. The assay was performed as described (Nicosia, R F and Ottinetti, A. Growth of new microvessels in serum-free matrix culture of rat aorta. Lab Invest., 63: 115-122, 1990). Thoracic aortas were removed from 1 to 2-month old male Sprague-Dawley rats and transferred to a culture dish containing serum-free MCDB 131 medium (Clonetics). Extraneous tissue was removed and the aorta was sectioned into rings approximately 1 mm long and rinsed 8-10 times in serum-free medium. A solution of sterile 1.5% agarose (Type VI-A, Sigma, St. Louis, Mo.) was added to the wells of a 6-well plate. The wells were filled with clotting fibrinogen solution and an aortic ring was transferred into the well positioned with the lumen oriented horizontally in the center of the fibrin gel solution. The fibrinogen solution was prepared in MCDB 131 medium with bovine fibrinogen at 3 mg/ml. Clotting was initiated by adding 20 μl of a 50 NIH units/ml bovine thrombin solution and the fibrin gel generally formed within 30 seconds. The fibrinolytic inhibitor amino-n-caproic acid was added to the culture medium at 300 µg/ml (microgram per milliliter) for the first four days of the assay and at 50 μg/ml from day 5 to day 8. Once the fibrin gel solution solidified, 5 ml of serum-free MCDB 131 media containing 100 μg/ml penicillin, 100 μg/ml streptomycin and 0.25 μg/ml amphotericin B was added to each well. Explants were incubated at 37° C. with 5% CO2 for 8 days. Medium was replaced every 2-3 days and the assay was analyzed on day 8. Inhibition of vascular sprouting was measured by adding test compounds diluted in DMSO.

Assay [1] relates to PC-3 prostate adenocarcinoma. As to the kind of experiment: Cell proliferation assay (14C-thymidine incorporation), PC-3. As to conditions: Homo sapiens, read-out: Inhibition of cell proliferation IC50. The protocol: (§1) The ability of a test compound to inhibit the proliferation of cell growth was determined by measuring incorporation of ^14C-labelled thymidine into newly synthesized DNA within the cells. This method was used on cell lines derived from carcinomas originating from several tissues such as HeLa cervical adenocarcinoma (American Type Culture Collection (ATCC), Virginia, Cat. #CCL-2), A375 malignant melanoma (ATCC CRL-1619), SK-OV-3 ovarian adenocarcinoma (ATCC HTB-77) HCT-116 colon carcinoma (CCL-247) and PC-3 prostate adenocarcinoma (ATCC CRL-1435). The method was also used on primary cells such as HUVEC endothelial cells (ATCC CRL-1730). In this way the effect of a compound on cell growth of cells with many different phenotypes can be determined. Cells were trypsinized and counted and 3000-8000 cells were added to each well of a 96-well CytoStar tissue culture treated scintillating microplate (Amersham #RPNQ0160) in complete medium in a volume of 100 μl. Cells were incubated for 24 hours in complete medium at 37° C. in an atmosphere containing 5% CO2.
(§2) Next, 1 μl of test compound in 100% DMSO was added to the wells of the plate. DMSO only was added to control wells. Cells were incubated for 24 more hours in complete medium at 37° C. in an atmosphere containing 5% CO2. Methyl ^14C-thymidine 56 mCi/mmol (NEN #NEC568 or Amersham #CFA532) was diluted in complete medium and 0.2 μCi/well was added to each well of the CytoStar plate in a volume of 20 μl. The plate was incubated for 24 hours at 37° C. plus 5% CO2 in drug plus ^14C-thymidine. The contents of the plate were discarded into a ^14C radioactive waste container by inverting the plate and the plate was washed twice with 200 μl PBS. 200 μl of PBS is then added to each well. The top of the plate was sealed with a transparent plate sealer and a white plate backing sealer (Packard #6005199) was applied to the bottom of the plate. The degree of Methyl ^14C-thymidine incorporation was quantified on a Packard Top Count.
In general terms: Uptake of a labelled nucleoside into DNA is a usual measure of proliferation.

A further assay deals with HCT-116 colon carcinoma. As to the kind of experiment: Cell proliferation assay (14C-thymidine incorporation), HCT-116. The conditions noted are these: Homo sapiens, read-out: Inhibition of cell proliferation IC50. Here is the method:
as §1, §2

The next assay relates to MDA-MB-231. Briefly: Cell proliferation assay (14C-thymidine incorporation), MDA-MB-231. As to conditions: Homo sapiens, read-out: Inhibition of cell proliferation IC50. The protocol: as §1, §2
The subject of assay [2] is HeLa cervical adenocarcinoma. Briefly: Cell proliferation assay (14C-thymidine incorporation), HeLa. As to conditions: Homo sapiens, read-out: Inhibition of cell proliferation IC50. The protocol:
as §1, §2

Assay [3] relates to SK-OV-3 ovarian adenocarcinoma. Briefly: Cell proliferation assay (14C-thymidine incorporation), SK-OV-3. The conditions noted are these: Homo sapiens, read-out: Inhibition of cell proliferation IC50. Here is the method: as §1, §2

Turning to `OCCCNc1cncc(-c2cncc(Nc3cccc(Cl)c3)n2)c1` [Cmd 4, 3-[[5-[6-[(3-chlorophenyl)amino]pyrazinyl]-3-pyridinyl]amino]-1-propanol], the IC50 in the assay on rat aortic ring was 0.099 µM; in assay [1] it was 11.3 µM; in the assay with HCT-116 colon carcinoma, 8.35 µM; with MDA-MB-231, 3.26 µM; in assay [2], 4.56 µM; in assay [3], 3 µM.

In the case of `OCCCCNc1cncc(-c2cncc(Nc3cccc(Cl)c3)n2)c1` [Cmd 32, 4-[[5-[6-[(3-chlorophenyl)amino]pyrazinyl]-3-pyridinyl]amino]-1-butanol], the IC50 came out at 0.83 µM with rat aortic ring; 67.6 µM in assay [1]; 23.5 µM in the assay on HCT-116 colon carcinoma; 27.6 µM with MDA-MB-231; 86.4 µM in assay [2]; 14.6 µM in assay [3].

As for `CN(C)CCCNc1cncc(-c2cncc(Nc3cccc(Cl)c3)n2)c1` [Cmd 35, N^1-[5-[6-[(3-chlorophenyl)amino]pyrazinyl]-3-pyridinyl]-N^3,N^3-dimethyl-1,3-propanediamine], the IC50 is above 1 µM with rat aortic ring; above 100 µM in assay [1]; above 100 µM in the assay with HCT-116 colon carcinoma; 98.3 µM in the assay with MDA-MB-231; above 100 µM in assay [2]; 19.3 µM in assay [3].
